Laboratory results as given in ChEMBL document CHEMBL3885881, “DrugMatrix”.

Species: Rattus norvegicus
Assay: DrugMatrix - Regimen: Daily Repeat
Assay type: toxicity, organism-based, Sprague-Dawley
Set-up: regimen Daily Repeat, gender Male, age 6-8 weeks
Details: in vivo, po, route oral GAVAGE, vehicle .5 % CMC; for ABSOLUTE BASOPHIL / ABSOLUTE EOSINOPHIL / ABSOLUTE LYMPHOCYTE / ABSOLUTE MONOCYTE / ABSOLUTE SEGMENTED NEUTROPHIL / BASOPHIL / EOSINOPHIL / ERYTHROCYTE COUNT / HEMATOCRIT / HEMOGLOBIN / LEUKOCYTE COUNT / LYMPHOCYTE / MEAN CORPUSCULAR HEMOGLOBIN / MEAN CORPUSCULAR HEMOGLOBIN CONCENTRATION / MEAN CORPUSCULAR VOLUME / MONOCYTE / NEUTROPHIL / NUCLEATED RED BLOOD CELLS / PLATELET COUNT: tissue Blood; for ALANINE AMINOTRANSFERASE / ALBUMIN / ALKALINE PHOSPHATASE / ASPARTATE AMINOTRANSFERASE / BLOOD UREA NITROGEN / CARBON DIOXIDE / CHLORIDE / CHOLESTEROL / CREATINE PHOSPHOKINASE / CREATININE / GLUCOSE / LACTATE DEHYDROGENASE / LIPASE / PHOSPHORUS / POTASSIUM / SODIUM / TOTAL BILIRUBIN / TOTAL PROTEIN / URIC ACID: tissue Plasma
[1] = 20 mg/kg, 120 h, dose level Low, time 5 day
[2] = 1600 mg/kg, 72 h, dose level High, time 3 day
[3] = 1600 mg/kg, 120 h, dose level High, time 5 day

NC(=O)N1c2ccccc2CC(=O)c2ccccc21 [OXCARBAZEPINE]
ABSOLUTE BASOPHIL [1]: 0 CELLS/uL
ABSOLUTE EOSINOPHIL [1]: 112 CELLS/uL
ABSOLUTE LYMPHOCYTE [1]: 14390.67 CELLS/uL
ABSOLUTE MONOCYTE [1]: 0 CELLS/uL
ABSOLUTE SEGMENTED NEUTROPHIL [1]: 964 CELLS/uL
BASOPHIL [1]: 0%
EOSINOPHIL [1]: 0.67%
ERYTHROCYTE COUNT [1]: 5.76 x10E6/uL
HEMATOCRIT [1]: 35.97%
HEMOGLOBIN [1]: 14.53 G/DL
LEUKOCYTE COUNT [1]: 15.47 x10E3/uL
LYMPHOCYTE [1]: 93.33%
MEAN CORPUSCULAR HEMOGLOBIN [1]: 25.2 pg
MEAN CORPUSCULAR HEMOGLOBIN CONCENTRATION [1]: 40.4 G/DL
MEAN CORPUSCULAR VOLUME [1]: 62.37 fL
MONOCYTE [1]: 0%
NEUTROPHIL [1]: 6%
NUCLEATED RED BLOOD CELLS [1]: 0.33 /100WBC
PLATELET COUNT [1]: 1403.33 x10E3/uL
ALANINE AMINOTRANSFERASE [1]: 47.67 u/L
ALBUMIN [1]: 4.37 G/DL
ALKALINE PHOSPHATASE [1]: 374.67 u/L
ASPARTATE AMINOTRANSFERASE [1]: 83.33 u/L
BLOOD UREA NITROGEN [1]: 17 mg/dL
CARBON DIOXIDE [1]: 26.67 mmol/L
CHLORIDE [1]: 102.33 MEQ/L
CHOLESTEROL [1]: 67.67 mg/dL
CREATINE PHOSPHOKINASE [1]: 246.33 u/L
CREATININE [1]: 0.16 mg/dL
GLUCOSE [1]: 163.33 mg/dL
LACTATE DEHYDROGENASE [1]: 115.33 u/L
LIPASE [1]: 8.67 u/L
PHOSPHORUS [1]: 12.83 mg/dL
POTASSIUM [1]: 6.85 MEQ/L
SODIUM [1]: 146.7 MEQ/L
TOTAL BILIRUBIN [1]: 0.17 mg/dL
TOTAL PROTEIN [1]: 6.17 G/DL
URIC ACID [1]: 2.23 mg/dL
ABSOLUTE BASOPHIL [2]: 0 CELLS/uL
ABSOLUTE EOSINOPHIL [2]: 0 CELLS/uL
ABSOLUTE LYMPHOCYTE [2]: 14109.67 CELLS/uL
ABSOLUTE MONOCYTE [2]: 56.33 CELLS/uL
ABSOLUTE SEGMENTED NEUTROPHIL [2]: 1034 CELLS/uL
BASOPHIL [2]: 0%
EOSINOPHIL [2]: 0%
ERYTHROCYTE COUNT [2]: 6.38 x10E6/uL
HEMATOCRIT [2]: 39.5%
HEMOGLOBIN [2]: 15.47 G/DL
LEUKOCYTE COUNT [2]: 15.2 x10E3/uL
LYMPHOCYTE [2]: 93.33%
MEAN CORPUSCULAR HEMOGLOBIN [2]: 24.27 pg
MEAN CORPUSCULAR HEMOGLOBIN CONCENTRATION [2]: 39.2 G/DL
MEAN CORPUSCULAR VOLUME [2]: 61.93 fL
MONOCYTE [2]: 0.33%
NEUTROPHIL [2]: 6.33%
NUCLEATED RED BLOOD CELLS [2]: 0 /100WBC
PLATELET COUNT [2]: 1432 x10E3/uL
ALANINE AMINOTRANSFERASE [2]: 82.67 u/L
ALBUMIN [2]: 4.43 G/DL
ALKALINE PHOSPHATASE [2]: 485.33 u/L
ASPARTATE AMINOTRANSFERASE [2]: 91 u/L
BLOOD UREA NITROGEN [2]: 16.33 mg/dL
CARBON DIOXIDE [2]: 31 mmol/L
CHLORIDE [2]: 101 MEQ/L
CHOLESTEROL [2]: 73 mg/dL
CREATINE PHOSPHOKINASE [2]: 195 u/L
CREATININE [2]: 0.2 mg/dL
GLUCOSE [2]: 116 mg/dL
LACTATE DEHYDROGENASE [2]: 266 u/L
LIPASE [2]: 11 u/L
PHOSPHORUS [2]: 10.13 mg/dL
POTASSIUM [2]: 6.83 MEQ/L
SODIUM [2]: 145.67 MEQ/L
TOTAL BILIRUBIN [2]: 0.17 mg/dL
TOTAL PROTEIN [2]: 5.8 G/DL
URIC ACID [2]: 1.43 mg/dL
ABSOLUTE BASOPHIL [3]: 0 CELLS/uL
ABSOLUTE EOSINOPHIL [3]: 0 CELLS/uL
ABSOLUTE LYMPHOCYTE [3]: 15797.33 CELLS/uL
ABSOLUTE MONOCYTE [3]: 212.67 CELLS/uL
ABSOLUTE SEGMENTED NEUTROPHIL [3]: 2156.67 CELLS/uL
BASOPHIL [3]: 0%
EOSINOPHIL [3]: 0%
ERYTHROCYTE COUNT [3]: 5.81 x10E6/uL
HEMATOCRIT [3]: 36.23%
HEMOGLOBIN [3]: 14.8 G/DL
LEUKOCYTE COUNT [3]: 18.17 x10E3/uL
LYMPHOCYTE [3]: 87.33%
MEAN CORPUSCULAR HEMOGLOBIN [3]: 25.47 pg
MEAN CORPUSCULAR HEMOGLOBIN CONCENTRATION [3]: 40.83 G/DL
MEAN CORPUSCULAR VOLUME [3]: 62.33 fL
MONOCYTE [3]: 1%
NEUTROPHIL [3]: 11.67%
NUCLEATED RED BLOOD CELLS [3]: 0 /100WBC
PLATELET COUNT [3]: 1349.67 x10E3/uL
ALANINE AMINOTRANSFERASE [3]: 60.67 u/L
ALBUMIN [3]: 4.5 G/DL
ALKALINE PHOSPHATASE [3]: 338.67 u/L
ASPARTATE AMINOTRANSFERASE [3]: 86.33 u/L
BLOOD UREA NITROGEN [3]: 17.33 mg/dL
CARBON DIOXIDE [3]: 23.33 mmol/L
CHLORIDE [3]: 99 MEQ/L
CHOLESTEROL [3]: 93.67 mg/dL
CREATINE PHOSPHOKINASE [3]: 336.33 u/L
CREATININE [3]: 0.28 mg/dL
GLUCOSE [3]: 123 mg/dL
LACTATE DEHYDROGENASE [3]: 512.67 u/L
LIPASE [3]: 13 u/L
PHOSPHORUS [3]: 13.6 mg/dL
POTASSIUM [3]: 7.68 MEQ/L
SODIUM [3]: 142.17 MEQ/L
TOTAL BILIRUBIN [3]: 0.23 mg/dL
TOTAL PROTEIN [3]: 6.43 G/DL
URIC ACID [3]: 2.07 mg/dL
